In patent US20250296937A1, “CYCLIC BISBENZYL TETRAHYDROISOQUINOLINE COMPOUND, AND PREPARATION METHOD THEREFOR AND USE THEREOF” (Shanghai Institute of Materia Medica, Chinesse Academy of …, priority 2021, published 2025):
Read-outs that look alike come from different tables or passages of the source.

Tests used:
HCoV OC43 virus = experiment: Inhibition against HCoV OC43 virus replication; type: cell-based, human coronavirus HCoV OC43; details: Betacoronavirus 1, OC43
hERG potassium channel = target: T1, hERG potassium channel (Homo sapiens, UniProt Q12809); experiment: hERG potassium channel whole-cell membrane clamp in CHO cells; type: cell-based; details: CHO cells stably expressing hERG, whole-cell membrane clamp
T1 construct: expressed in transfected cells
Description: Compounds were given for at least 1 min for each tested concentration, and at least 2 cells (n≥2) were tested per concentration.

[1] = system: 2019 novel coronavirus (SARS-CoV-2) original strain; experiment: Replication inhibitory activity against SARS-CoV-2 original strain in Vero E6 cells (qRT-PCR); type: cell-based; details: Severe acute respiratory syndrome coronavirus 2, Vero C1008; Vero E6 cells, MOI 0.01, 24 h p.i., viral copy number by qRT-PCR; read-out: Inhibition against viral replication of the original strain EC50
[2] = Cytotoxicity test on Vero E6 cells (CCK8); type: cell-based; details: African green monkey; Vero E6 cells, CCK8 kit
Description: (§1) In this embodiment, the half toxicity concentration of each embodiment on Vero E6 cells was determined by CCK8 kit analysis (CC50).

[3] = target: novel coronavirus envelope protein (2-E) ion channel (Severe acute respiratory syndrome coronavirus 2, UniProt P0DTC4); experiment: Novel coronavirus envelope protein (2-E) ion channel activity test, planar lipid bilayer (BLM); type: biochemical, SARS-CoV-2; details: room temperature, 1, 10, 50, 100 μM, read-out: Inhibition against 2-E ion channels IC50
Vero E6 cells = experiment: Cytotoxicity test on Vero E6 cells (CCK8); type: cell-based
Description: as §1

Raw 264.7 cells [4] = experiment: Cell viability in TNF-α induced inflammation model of Raw 264.7 cells (CCK-8); type: cell-based; details: 10 ng/ml TNF-α, 1 μM compound, 16 hours
Description: In this embodiment, the effect of compounds on TNF-α-induced inflammation levels in Raw 264.7 cells was analyzed by cell viability combined with inflammatory factor expression levels; cell viability was analyzed by CCK-8 assay; and mRNA expression levels of inflammation-associated indicators were detected by real-time quantitative PCR (Q-PCR) method. Raw 264.7 cells were purchased from ATCC, CCK-8 kit was purchased from Meilunbio, item number MA0218-3, TNF-α was purchased from Merck, item no. GF314.
(§2) Experimental methods: first, 8000 cells/well Raw 264.7 cells were placed in 96-well plates and incubated overnight. On the second day, 0.1% DMSO was added to the control cells, 10 ng/ml TNF-α as well as 0.1% DMSO was added to the model group, 10 ng/ml TNF-α as well as 1 μM of the compounds (oxyacanthine hydrochloride (oxy), 1, 2, tetrandrine (tet), 3, 4, 6, 58) was added to the treatment group, and the 96-well plates were sterilized and incubated in a constant temperature incubator for 16 hours. Finally, the viability of the cells was detected using the CCK-8 kit.

Raw 264.7 cells [5] = experiment: Cell viability in LPS-induced inflammation model of Raw 264.7 cells (CCK-8); type: cell-based; details: 1 μg/ml LPS, 1 μM compound, 16 hours
Description: In this example, the effect of the compounds of the present invention on the inflammation level of the LPS-induced inflammation model of Raw 264.7 cells was analyzed by cell viability in combination with inflammatory factors; cell viability was analyzed by CCK-8 assay; and mRNA expression levels of inflammation-related indicators were detected by a real-time quantitative PCR (Q-PCR) method. Raw 264.7 cells were purchased from ATCC; CCK-8 kit was purchased from Meilunbio, item no. MA0218-3; LPS was purchased from Sigma, item no. L2630.
as §2, with “1 μg/ml LPS” for “10 ng/ml TNF-α”

ALM12 hepatocytes = experiment: Anti H2O2-induced necrotic injury assay in ALM12 hepatocytes (microscopy, CCK-8); type: cell-based; details: 2 mM H2O2, 1 μM compound, 3 hours, microscope and CCK-8
Description: In this example, the effect of the compounds of the present invention on the level of necrotic injury induced by H2O2 in ALM12 hepatocytes was analyzed by microscopic morphological observations, cell viability in combination with cell death-associated molecules. Cell viability was analyzed by CCK-8 assay. ALM12 cells were cultured in 1640 medium (gibco, c11995500BT)+10% FBS (gibco, 10099141C) in a constant temperature incubator at 37° C., 5% CO2; the CCK-8 kit was purchased from Meilunbio, item no. MA0218-3; H2O2 was purchased from Sinopharm Chemical Reagent Co. item no. 10011208.
Experimental methods: first, 8000 cells/well ALM12 cells were placed in 96-well plates and incubated overnight. On the second day, 0.1% DMSO was added to the control cells, 2 mM H2O2 as well as 0.1% DMSO was added to the model group, 2 mM H2O2 as well as 1 μM of the compounds (oxy, 1, 2, tet, 3, 4, 6, 58) was added to the treatment group, and the 96-well plates were sterilized and incubated in a constant temperature incubator for 3 hours. Finally, cell injury and growth were observed using a microscope; the viability of the cells was detected by CCK-8 kit.

Sequence of novel coronavirus envelope protein (2-E) ion channel (P0DTC4 whole entry, looked up): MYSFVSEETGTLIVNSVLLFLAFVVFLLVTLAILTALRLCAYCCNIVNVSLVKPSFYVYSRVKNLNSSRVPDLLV
T1 sequence (Q12809 whole entry): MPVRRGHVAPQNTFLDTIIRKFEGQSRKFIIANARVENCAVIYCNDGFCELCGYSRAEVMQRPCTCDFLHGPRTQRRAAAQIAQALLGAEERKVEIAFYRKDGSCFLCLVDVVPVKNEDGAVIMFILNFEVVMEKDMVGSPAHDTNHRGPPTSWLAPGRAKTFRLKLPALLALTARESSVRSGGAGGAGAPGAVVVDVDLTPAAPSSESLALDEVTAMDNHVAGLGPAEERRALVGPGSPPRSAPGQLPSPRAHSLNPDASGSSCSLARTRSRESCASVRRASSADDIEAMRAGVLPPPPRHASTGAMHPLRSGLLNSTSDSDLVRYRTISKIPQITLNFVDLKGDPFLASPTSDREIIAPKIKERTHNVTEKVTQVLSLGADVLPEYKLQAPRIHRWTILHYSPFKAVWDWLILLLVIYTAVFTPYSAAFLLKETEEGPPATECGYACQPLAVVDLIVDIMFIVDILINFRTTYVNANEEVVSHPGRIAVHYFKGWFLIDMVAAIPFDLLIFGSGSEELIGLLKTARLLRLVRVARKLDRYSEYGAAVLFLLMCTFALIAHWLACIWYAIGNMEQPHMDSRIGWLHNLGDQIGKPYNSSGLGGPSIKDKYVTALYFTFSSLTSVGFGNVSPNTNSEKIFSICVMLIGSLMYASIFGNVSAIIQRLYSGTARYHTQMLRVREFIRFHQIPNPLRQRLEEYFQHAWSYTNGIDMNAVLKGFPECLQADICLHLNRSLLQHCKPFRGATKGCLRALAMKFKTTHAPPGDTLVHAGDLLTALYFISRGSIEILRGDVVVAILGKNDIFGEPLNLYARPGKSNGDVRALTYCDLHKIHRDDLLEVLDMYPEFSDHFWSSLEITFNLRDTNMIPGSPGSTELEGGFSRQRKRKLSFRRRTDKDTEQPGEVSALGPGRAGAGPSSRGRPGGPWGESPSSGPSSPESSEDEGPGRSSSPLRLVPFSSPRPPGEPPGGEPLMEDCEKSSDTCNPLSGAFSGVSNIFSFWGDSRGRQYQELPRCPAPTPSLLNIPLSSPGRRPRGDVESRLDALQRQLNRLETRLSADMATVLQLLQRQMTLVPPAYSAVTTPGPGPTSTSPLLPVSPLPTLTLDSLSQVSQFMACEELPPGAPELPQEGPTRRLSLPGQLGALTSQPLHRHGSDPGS

| Compound | IC50 (hERG potassium channel) | EC50 [1] | IC50 [2] | also measured |
| --- | --- | --- | --- | --- |
| COc1cc2c3cc1Oc1c(OC)c(OC)cc4c1[C@H](Cc1ccc(cc1)Oc1cccc(c1)C[C@H]3N(C)CC2)N(C)CC4 [Compound 33] | > 40 µM | 0.1 to 1 µM | 10 to 30 µM | EC50 (HCoV OC43 virus): 4.1 µM |
| CCCCCNC(=O)c1ccc2cc1Oc1ccc(cc1)C[C@H]1c3c(cc(OC)c(OC)c3Oc3cc4c(cc3OC)CCN(C)[C@@H]4C2)CCN1C [Compound 37] | > 20 µM | 1 to 5 µM | 10 to 30 µM | IC50 [3]: < 10 µM |
| COc1cc2c3cc1Oc1c(OC)c(OC)cc4c1[C@H](Cc1ccc(cc1)Oc1cc(ccc1C(C)O)C[C@H]3N(C)CC2)N(C)CC4 (stereo partly shown) [Compound 40] | – | 0.1 to 1 µM | 30 to 50 µM | – |
| COc1cc2c3cc1Oc1c(OC)c(OC)cc4c1[C@H](Cc1ccc(cc1)Oc1cc(ccc1C(=O)NC1CCCC1)C[C@H]3N(C)CC2)N(C)CC4 [Compound 22] | – | 0.5 to 1.5 µM | 10 to 30 µM | – |
| C=C(C)c1ccc2cc1Oc1ccc(cc1)C[C@H]1c3c(cc(OC)c(OC)c3Oc3cc4c(cc3OC)CCN(C)[C@@H]4C2)CCN1C [Compound 34] | – | 0.5 to 1.5 µM | 10 to 30 µM | IC50 [3]: < 10 µM |
| COc1cc2c3cc1Oc1c(OC)c(OC)cc4c1[C@H](Cc1ccc(cc1)Oc1cc(ccc1CO)C[C@H]3N(C)CC2)N(C)CC4 [Compound 9] | – | 0.5 to 1.5 µM | > 50 µM | IC50 [3]: 10 to 30 µM; EC50 (HCoV OC43 virus): 3 µM |
| COc1cc2c3cc1Oc1c(OC)c(OC)cc4c1[C@H](Cc1ccc(cc1)Oc1cc(ccc1C(C)=O)C[C@H]3N(C)CC2)N(C)CC4 [Compound 19] | – | 0.5 to 1.5 µM | 30 to 50 µM | – |
| COc1ccc2cc1Oc1ccc(cc1)C[C@H]1c3cc(c(OC)cc3CCN1C)Oc1c(OC)c(OC)cc3c1[C@H](C2)N(C)CC3 [tetrandrine, reference compound] | – | – | – | cytotoxicity (background statement) (Vero E6 cells): high cytotoxicity |
| COc1cc2c3cc1Oc1c(OC)c(OC)cc4c1[C@H](Cc1ccc(cc1)Oc1cc(ccc1C(=O)Nc1ccccc1)C[C@H]3N(C)CC2)N(C)CC4 [Compound 45] | > 20 µM | 1 to 5 µM | 10 to 30 µM | IC50 [3]: < 10 µM |
| COc1ccc(NC(=O)c2ccc3cc2Oc2ccc(cc2)C[C@H]2c4c(cc(OC)c(OC)c4Oc4cc5c(cc4OC)CCN(C)[C@@H]5C3)CCN2C)cc1 [Compound 52] | – | 0.1 to 1 µM | 10 to 30 µM | – |
| CNC(=O)c1ccc2cc1Oc1ccc(cc1)C[C@H]1c3c(cc(OC)c(OC)c3Oc3cc4c(cc3OC)CCN(C)[C@@H]4C2)CCN1C [Compound 5] | 9.4 µM | 1 to 10 µM | > 50 µM | cytotoxicity on Vero E6 cells compared with oxyacanthine hydrochloride (Vero E6 cells; Vero E6 cells): weaker cytotoxicity than oxyacanthine hydrochloride |
| COc1cc2c3cc1Oc1c(OC)c(OC)cc4c1[C@H](Cc1ccc(cc1)Oc1cc(ccc1C(=O)Nc1cccnc1)C[C@H]3N(C)CC2)N(C)CC4 [Compound 51] | – | 0.1 to 1 µM | 10 to 30 µM | – |
| COc1cc2c3cc1Oc1c(OC)c(OC)cc4c1[C@H](Cc1ccc(cc1)Oc1cc(ccc1C(=O)NC1CCC1)C[C@H]3N(C)CC2)N(C)CC4 [Compound 50] | 4.5 µM | 0.1 to 1 µM | 30 to 50 µM | – |
| COc1cc2c3cc1Oc1c(OC)c(OC)cc4c1[C@H](Cc1ccc(cc1)Oc1cc(ccc1C(=O)NC(C)C)C[C@H]3N(C)CC2)N(C)CC4 [Compound 48] | – | 0.1 to 1 µM | 10 to 30 µM | – |
| COc1cc2c3cc1Oc1c(OC)c(OC)cc4c1[C@H](Cc1ccc(cc1)Oc1cc(cc5[nH]c(=O)oc15)C[C@H]3N(C)CC2)N(C)CC4 [Compound 17] | – | 0.1 to 1 µM | 10 to 30 µM | – |
| COc1cc2c3cc1Oc1c(OC)c(OC)cc4c1[C@H](Cc1ccc(cc1)Oc1cc(ccc1C(=O)O)C[C@H]3N(C)CC2)N(C)CC4 [Compound 7] | > 40 µM | – | > 50 µM | IC50 [3]: 10 to 30 µM |
| COc1cc2c3cc1Oc1c(OC)c(OC)cc4c1[C@H](Cc1ccc(cc1)Oc1cc(ccc1C)C[C@H]3N(C)CC2)N(C)CC4 [Compound 35] | – | 1 to 5 µM | 10 to 30 µM | – |
| COc1cc2c3cc1Oc1c(OC)c(OC)cc4c1[C@H](Cc1ccc(cc1)Oc1cc(ccc1C(=O)NCCOCCO)C[C@H]3N(C)CC2)N(C)CC4 [Compound 55] | > 40 µM | 1 to 5 µM | > 100 µM | – |
| COc1cc2c3cc1Oc1c(OC)c(OC)cc4c1[C@H](Cc1ccc(cc1)Oc1cc(ccc1C1CC1)C[C@H]3N(C)CC2)N(C)CC4 [Compound 38] | – | 1 to 5 µM | 10 to 30 µM | – |
| COc1cc2c3cc1Oc1c(OC)c(OC)cc4c1[C@H](Cc1ccc(cc1)Oc1cc(ccc1C#N)C[C@H]3N(C)CC2)N(C)CC4 [Compound 1] | 6.4 µM | 0.1 to 1 µM | 10 to 30 µM | IC50 [3]: < 10 µM; cell viability in TNF-α-induced inflammation model (Raw 264.7 cells [4]): did not affect cell viability; EC50 (HCoV OC43 virus): 4.2 µM; cell viability in LPS-induced inflammation model (Raw 264.7 cells [5]): did not affect cell viability; alleviation of H2O2-induced ALM12 hepatocyte injury (ALM12 hepatocytes): significantly alleviated |
| COc1cc2c3cc1Oc1c(OC)c(OC)cc4c1[C@H](Cc1ccc(cc1)Oc1cc(ccc1C(=O)C1CC1)C[C@H]3N(C)CC2)N(C)CC4 [Compound 54] | – | 1 to 5 µM | 10 to 30 µM | – |
| COc1cc2c3cc1Oc1c(OC)c(OC)cc4c1[C@H](Cc1ccc(cc1)Oc1cc(ccc1C(=O)NC15CC6CC(CC(C6)C1)C5)C[C@H]3N(C)CC2)N(C)CC4 [Compound 49] | – | 0.1 to 1 µM | 5 to 10 µM | – |
| COc1cc2c3cc1Oc1c(OC)c(OC)cc4c1[C@@H](Cc1ccc(O)c(c1)Oc1ccc(cc1)C[C@@H]3N(C)CC2)N(C)CC4 [berbamine, reference compound] | – | – | – | cytotoxicity (background statement) (Vero E6 cells; inventors' screening of natural products): high cytotoxicity |
